Experimental data published in patent US4450269A, “Mono-5-substituted-3-chloro-4H-1,2,6-thiadiazin-4-one antifungal agents” (FMC Corporation, priority 1980, dated 1984).

What was measured:
Rhizoctonia solani = assay: Mycelial growth test; assay type: cell-based; conditions: Rhizoctonia solani, 72 h, RS, read-out: Percent Fungus Growth Inhibition
Source text: | RS = Rhizoctonia solani

Uromyces phaseoli = assay: whole plant or invertebrate; conditions: foliar, read-out: Percent Disease Control, foliar, bean rust

| SMILES | inhibition at 5 ppm (Rhizoctonia solani) [%] | inhibition at 10 ppm (Rhizoctonia solani) [%] | inhibition at 20 ppm (Rhizoctonia solani) [%] | inhibition at 40 ppm (Rhizoctonia solani) [%] | pest or weed control at 150 ppm (Uromyces phaseoli) [%] |
| --- | --- | --- | --- | --- | --- |
| CSc1ccc(Oc2nsnc(Cl)c2=O)cc1 [Compound 39, 3-chloro-5-[(4-methylthio)phenoxy]-4H-1,2,6,-thiadiazin-4-one] | 24 | 31 | 31 | 42 | 98 |
| C[S+]([O-])c1ccc(Oc2nsnc(Cl)c2=O)cc1 (stereo not shown) [Compound 40, 3-chloro-5-[(4-methylsulfinyl)phenoxy]-4H-1,2,6,-thiadiazin-4-one] | 0 | 0 | 24 | 53 | 98 |
| CS(=O)(=O)c1ccc(Oc2nsnc(Cl)c2=O)cc1 [Compound 41, 3-chloro-5-[(4-methylsulfonyl)phenoxy]-4H--1,2,6-thiadiazin-4-one] | 0 | 0 | 51 | 64 | 0 |
| CC(=O)Nc1cccc(Oc2nsnc(Cl)c2=O)c1 [Compound 42, 3-[(3-N--acetylamino)-phenoxy]-5-chloro-4H--1,2,6-thiadiazin-4-one] | 0 | 4 | 31 | 67 | 100 |
| CC(=O)Nc1ccccc1Oc1nsnc(Cl)c1=O [Compound 43, 3-[(2-acetylamino)-phenoxy]-5-chloro-4H--1,2,6-thiadiazin-4-one] | 0 | 0 | 11 | 24 | 0 |
| O=c1c(Cl)nsnc1Oc1cccc(C(F)(F)F)c1 [Compound 44, 3-chloro-5-[(3-trifluoromethyl)phenoxy]-4H--1,2,6-thiadiazin-4-one] | 82 | 80 | 96 | 100 | 100 |
| O=C(O)Cc1ccccc1Oc1nsnc(Cl)c1=O [Compound 45, 3-(2-carboxymethylphenoxy)-5-chloro-4H--1,2,6-thiadiazin-4-one] | 0 | 0 | 13 | 42 | 95 |
| N#CCc1ccc(Oc2nsnc(Cl)c2=O)cc1 [Compound 46, 3-chloro-5-[(4-cyanomethyl)-phenoxy]4H--1,2,6-thiadiazin-4-one] | 27 | 56 | 64 | 100 | 0 |
| CC(=O)c1ccc(Oc2nsnc(Cl)c2=O)cc1 [Compound 47, 3-(4-acetylphenoxy)-5-chloro-4H--1,2,6-thiadiazin-4-one] | 58 | 47 | 69 | 78 | 0 |
| CC(=O)c1cccc(Oc2nsnc(Cl)c2=O)c1 [Compound 48, 3-(3-acetylphenoxy)-5-chloro-4H--1,2,6-thiadiazin-4-one] | 64 | 24 | 64 | 76 | 100 |
| CC(=O)c1ccccc1Oc1nsnc(Cl)c1=O [Compound 49, 3-(2-acetylphenoxy)-5-chloro-4H--1,2,6-thiadiazin-4-one] | 9 | 24 | 42 | 64 | 100 |
| O=C(O)c1ccc(Oc2nsnc(Cl)c2=O)cc1 [Compound 50, 3-(4-carboxyphenoxy)-5-chloro-4H--1,2,6-thiadiazin-4-one] | 42 | 0 | 13 | 47 | 90 |
| COc1ccc(Cl)c(Oc2nsnc(Cl)c2=O)c1 [Compound 51, 3-chloro-5-[(2-chloro-5-methoxy)phenoxy]-4H--1,2,6-thiadiazin-4-one] | 20 | 56 | 82 | 100 | 0 |
| O=c1c(Cl)nsnc1Oc1ccc([N+](=O)[O-])cc1Cl [Compound 53, 3-chloro-5-(2-chloro-4-nitrophenoxy)-4H--1,2,6-thiadiazin-4-one] | 53 | 53 | 76 | 76 | 100 |
